Source: US10781189B2, “1,2,4-Oxadiazole and thiadiazole compounds as immunomodulators” (Aurigene Discovery Technologies Limited, priority 2015, dated 2020)

These molecules were tested against T1, Recombinant mouse PD-L1 (Mus musculus, UniProt Q9EP73) (assay: Rescue of mouse splenocyte proliferation in the presence of recombinant PD-L1 (CFSE proliferation assay)). Conditions: 100 nM compound; CFSE-labelled C57 BL6 mouse splenocytes + anti-CD3/CD28 + PD-L1 (100 ng/mL), 72 h; normalised to stimulated splenocytes as 100%; read-out: Percent rescue of splenocyte proliferation (@100 nM).
T1 construct: Fc (Fc chimera); purchased R&D Systems 1019-B7-100
Format: cell-based
Protocol: Example 15: Rescue of Mouse Splenocyte Proliferation in the Presence of Recombinant PD-L1
Recombinant mouse PD-L1 (rm-PDL-1, cat no: 1019-B7-100; R&D Systems) were used as the source of PD-L1.
Mouse splenocytes harvested from 6-8 weeks old C57 BL6 mice; RPMI 1640 (GIBCO, Cat #11875); DMEM with high glucose (GIBCO, Cat # D6429); Fetal Bovine Serum [Hyclone, Cat # SH30071.03]; Penicillin (10000 unit/mL)-Streptomycin (10,000 μg/mL) Liquid (GIBCO, Cat #15140-122); MEM Sodium Pyruvate solution 100 mM (100×), Liquid (GIBCO, Cat #11360); Nonessential amino acid (GIBCO, Cat #11140); L-Glutamine (GIBCO, Cat #25030); Anti-CD3 antibody (eBiosciences—16-0032); Anti-CD28 antibody (eBiosciences—16-0281); ACK lysis buffer (1 mL) (GIBCO, Cat #-A10492); Histopaque (density-1.083 gm/mL) (SIGMA 10831); Trypan blue solution (SIGMA-T8154); 2 mL Norm Ject Luer Lock syringe-(Sigma 2014-12); 40 μm nylon cell strainer (BD FALCON 35230); Hemacytometer (Bright line-SIGMA Z359629); FACS Buffer (PBS/0.1% BSA): Phosphate Buffered Saline (PBS) pH 7.2 (HiMedia TS1006) with 0.1% Bovine Serum Albumin (BSA) (SIGMA A7050) and sodium azide (SIGMA 08591); 5 mM stock solution of CFSE: CFSE stock solution was prepared by diluting lyophilized CFSE with 180 μL of Dimethyl sulfoxide (DMSO C2H6SO, SIGMA-D-5879) and aliquoted in to tubes for further use. Working concentrations were titrated from 10 μM to 1 μM. (eBioscience—650850-85); 0.05% Trypsin and 0.02% EDTA (SIGMA 59417C); 96-well format ELISA plates (Corning CLS3390); BD FACS caliber (E6016); Recombinant mouse B7-H1/PDL1 Fc Chimera, (rm-PD-L1 cat no: 1019-B7-100).
Splenocytes harvested in a 50 mL falcon tube by mashing mouse spleen in a 40 μm cell strainer were further treated with 1 mL ACK lysis buffer for 5 min at room temperature. After washing with 9 mL of RPMI complete media, cells were re-suspended in 3 mL of 1×PBS in a 15 mL tube. 3 mL of Histopaque was added carefully to the bottom of the tube without disturbing overlaying splenocyte suspension. After centrifuging at 800×g for 20 min at room temperature, the opaque layer of splenocytes was collected carefully without disturbing/mixing the layers. Splenocytes were washed twice with cold 1×PBS followed by total cell counting using Trypan Blue exclusion method and used further for cell based assays.
Splenocytes were cultured in RPMI complete media (RPMI+10% fetal bovine serum+1 mM sodium pyruvate+10,000 units/mL penicillin and […] streptomycin) and maintained in a CO2 incubator with 5% CO2 at 37° C.
CFSE is a dye that passively diffuses into cells and binds to intracellular proteins. 1×10^6 cells/mL of harvested splenocytes were treated with 5 μM of CFSE in pre-warmed 1×PBS/0.1% BSA solution for 10 min at 37° C. Excess CFSE was quenched using 5 volumes of ice-cold culture media to the cells and incubated on ice for 5 min. CFSE labelled splenocytes were further given three washes with ice cold complete RPMI media. CFSE labelled 1×10^5 splenocytes added to wells containing either MDA-MB231 cells (1×10^5 cells cultured in high glucose DMEM medium) or recombinant human PDL-1 (100 ng/mL) and test compounds. Splenocytes were stimulated with anti-mouse CD3 and anti-mouse CD28 antibody (1 μg/mL each) and the culture was further incubated for 72 h at 37° C. with 5% CO2. Cells were harvested and washed thrice with ice cold FACS buffer and % proliferation was analysed by flow cytometry with 488 nm excitation and 521 nm emission filters.
Percent splenocyte proliferation was analysed using cell quest FACS program and percent rescue of splenocyte proliferation by compound was estimated after deduction of % background proliferation value and normalising to % stimulated splenocyte proliferation (positive control) as 100%.
Stimulated splenocytes: Splenocytes+anti-CD3/CD28 stimulation
Background proliferation: Splenocytes+anti-CD3/CD28+PD-L1
Compound proliferation: Splenocytes+anti-CD3/CD28+PD-L1+Compound […]

T1 sequence (Q9EP73 with tags, fused parts or gaps limits assumed): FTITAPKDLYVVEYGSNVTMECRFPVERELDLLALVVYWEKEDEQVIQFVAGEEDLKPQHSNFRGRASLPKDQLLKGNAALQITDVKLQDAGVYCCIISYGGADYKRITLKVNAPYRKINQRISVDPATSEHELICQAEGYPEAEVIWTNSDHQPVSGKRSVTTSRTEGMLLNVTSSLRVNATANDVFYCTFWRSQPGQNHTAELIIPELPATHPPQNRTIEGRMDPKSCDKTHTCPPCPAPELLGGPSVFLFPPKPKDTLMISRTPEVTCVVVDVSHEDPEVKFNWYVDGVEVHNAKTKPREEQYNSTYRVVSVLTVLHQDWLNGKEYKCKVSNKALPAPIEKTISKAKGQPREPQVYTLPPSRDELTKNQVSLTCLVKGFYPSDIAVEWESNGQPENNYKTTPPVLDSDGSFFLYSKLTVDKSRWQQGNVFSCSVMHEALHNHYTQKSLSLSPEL

First: CCC(C)[C@H](NC(=O)N[C@@H](CCC(=O)O)C(=O)O)c1nc([C@@H](N)CCC(N)=O)no1 (stereo partly shown) [Compound 10]
Second: NCCCC[C@H](N)c1noc([C@H](CCC(N)=O)NC(=O)N[C@@H](CO)C(=O)O)n1 [Compound 36]
The activation at 0.1 µM of the first is higher: 84% for the first, 68% for the second.

Compared with CCCNC(=O)CC[C@H](NC(=O)N[C@H](C(=O)O)C(C)O)c1nc([C@@H](N)CO)no1 (stereo partly shown) [Compound 75], CC(O)[C@H](NC(=O)N[C@@H](CCC(N)=O)c1nc([C@@H](N)CCCNC(=N)N)no1)C(=O)O (stereo partly shown) [Compound 33] is lower in activation at 0.1 µM: 119% for the first, 60% for the second.

Going from N[C@@H](CC(=O)O)c1noc([C@@H]2CCCN2C(=O)N[C@@H](CC(=O)O)C(=O)O)n1 [Compound 23] to N[C@@H](CCC(=O)O)c1noc([C@@H]2CCCN2C(=O)N[C@@H](CC(=O)O)C(=O)O)n1 [Compound 24], the activation at 0.1 µM falls from 49% to 17%.

Compared with CC(O)[C@H](NC(=O)N[C@@H](Cc1c[nH]c2ccccc12)c1nc([C@@H](N)CO)no1)C(=O)O (stereo partly shown) [Compound 43], CC(O)[C@H](NC(=O)N[C@@H](CC(N)=O)c1nc([C@H](C)N)no1)C(=O)O (stereo partly shown) [Compound 15] is lower in activation at 0.1 µM: 60% for the first, 28% for the second.

First: N[C@@H](Cc1ccc(O)cc1)c1noc([C@@H]2C(O)CCN2C(=O)N[C@@H](Cc2ccc(O)cc2)C(=O)O)n1 (stereo partly shown) [Compound 19]
Second: N[C@@H](Cc1ccc(O)cc1)c1noc([C@@H]2CCCCN2C(=O)N[C@@H](Cc2ccc(O)cc2)C(=O)O)n1 [Compound 20]
The activation at 0.1 µM of the first is higher: 54% for the first, 51% for the second.

First: CCCCCCNC(=O)CC[C@H](NC(=O)N[C@@H](CCC(N)=O)C(=O)N[C@H](C(=O)O)C(C)O)c1nc([C@@H](N)CO)no1 (stereo partly shown) [Compound 78]
Second: NCCCC[C@H](NC(=O)N[C@@H](CC(N)=O)c1nc([C@@H](N)CO)no1)C(=O)O [Compound 5]
The activation at 0.1 µM of the first is higher: 42% for the first, 38% for the second.

Going from CC(O)[C@H](NC(=O)N1CCC[C@H]1c1nc([C@@H](N)Cc2ccc(O)cc2)no1)C(=O)O (stereo partly shown) [Compound 21] to CCC(C)[C@H](N)c1noc([C@@H](NC(=O)N[C@H](C(=O)O)C(C)O)C(C)CC)n1 (stereo partly shown) [Compound 52], the activation at 0.1 µM rises from 51% to 71%.

Going from CC(O)[C@@H](NC(=O)N[C@@H](CC(N)=O)c1nc([C@@H](N)CO)no1)c1nnc(CO)o1 (stereo partly shown) [Compound 79] to C[C@H](NC(=O)N[C@@H](C)c1nc([C@H](C)N)no1)C(=O)O [Compound 1], the activation at 0.1 µM rises from 37% to 76%.
